Data as given in patent US12036292B2, “Heterobiaryl compounds and imaging agents for imaging huntingtin protein” (CHDI Foundation, Inc., priority 2020, dated 2024).

Molecular target: T1, MBP-HTT(1-89)Q46-His(6×) (“Exon1-Q46”) protein aggregates (Homo sapiens, UniProt P42858, INS38QQQQQQQQQQQQQQQQQQQQQQQQQ)
T1 construct: MBP-HTT(1-89)Q46-His(6×); His(6×) (C); made in house
Experiment: Exon1-Q46 Radioligand Binding Assay
Settings: displacement of 0.3 nM ligand [3H3-methyl]-5-((5-methoxypyridin-2-yl)methoxy)-2-(pyrazin-2-yl)benzo[d]oxazole from 1 μM aggregated Exon1-Q46 protein; 60 minutes at 37° C.; read-out: Classified Potency
Description: Exon1-Q46 Radioligand Binding Assay
For radioligand binding assays (RBA) MBP-HTT(1-89)Q46-His(6×) (“Exon1-Q46”) protein was generated based on a previous publication (Scherzinger et al. Cell, Vol. 90, 549-558, Aug. 8, 1997). For experiments, 30 pM MBP-Exon1-Q46 was incubated with 150 μg/mL thrombin in assay buffer (150 mM NaCl, 50 mM Tris pH 8.0) and 2 mM CaCl2 for 16 hours at 37° C. Aggregated Exon1-Q46 was pelleted by centrifugation for 5 minutes at 13,000 rpm in a bench top centrifuge and re-dissolved in the same volume of assay buffer. Test compounds were prepared by titration in DMSO at 11 concentrations from 63 μM to 2 nM. For the RBA, Q46 protein aggregates and test compounds were pre-incubated in assay buffer for 20 minutes at room temperature, in 100 μL/well in a 96-well plate (pp, round bottom). Then, ligand was added in 50 μL/well and incubated for 60 minutes at 37° C. Final assay concentrations were 1 μM to 30 pM test compound, 1 μM Exon1-Q46 protein (equivalent monomer concentration) and 0.3 nM ligand [^3H3-methyl]-5-((5-methoxypyridin-2-yl)methoxy)-2-(pyrazin-2-yl)benzo[d]oxazole. Samples were transferred onto GF/B filter plates and washed 2× with 200 μL PBS using a Filtermate Harvester. After drying filter plates for 1 hour at 55° C., the back of the plates were sealed with foil and 30 μL/well scintillation fluid (Packard MicroScint 40) added, incubated for 15 minutes in the dark and counted in a MicroBeta reader. For analysis, replicate data from independent assay plates were normalized towards 0% and 100% inhibition using control wells of vehicle (0% inhibition) and 1 μM unlabeled [^3H3-methyl]-5-((5-methoxypyridin-2-yl)methoxy)-2-(pyrazin-2-yl)benzo[d]oxazole (100% inhibition). IC50 values were determined with a sigmoidal inhibition model with four variables (top, bottom, slope, IC50) in a global fit using the normalized replicate data.
The results for various example compounds were as provided in the table below (+++<100 nM; ++100-500; +500-10000; ND: not determined): […]

T1 sequence (P42858 with tags, fused parts or gaps with the stated changes limits assumed): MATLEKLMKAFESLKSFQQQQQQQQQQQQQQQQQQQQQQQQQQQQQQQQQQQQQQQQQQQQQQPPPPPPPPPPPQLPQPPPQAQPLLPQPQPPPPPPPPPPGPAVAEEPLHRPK

| SMILES | IC50 |
| --- | --- |
| N#Cc1cc(F)cc(-c2cc(C(=O)Nc3ccc(=O)[nH]n3)ncn2)c1 [Example 27] | < 100 nM |
| Cn1nc(NC(=O)c2cc(-c3cc(F)cc(C#N)c3)ncn2)ccc1=O [Example 20] | < 100 nM |
| Cn1cnc(NC(=O)c2cc(-c3cc(F)cc(Cl)c3)ncn2)cc1=O [Example 38] | < 100 nM |
| Cn1cc(NC(=O)c2cc(-c3cc(F)cc(Cl)c3)ncn2)cnc1=O [Example 35, 6-(3-Chloro-5-fluorophenyl)-N-(1-methyl-2-oxo-1,2-dihydropyrimidin-5-yl)pyrimidine-4-carboxamide] | < 100 nM |
| COc1cc(-c2cc(C(=O)N3Cc4cccnc4C3)ncn2)ccn1 [Example 14] | < 100 nM |
| COc1cc(F)cc(-c2cc(C(=O)Nc3ccc(=O)n(C)n3)ncn2)c1 [Example 21] | < 100 nM |
| COc1cc(C#N)cc(-c2cc(C(=O)Nc3ccc(=O)n(C)n3)ncn2)c1 [Example 19] | < 100 nM |
| COc1ncc(NC(=O)c2cc(-c3cc(F)cc(Cl)c3)ncn2)cn1 [Example 28] | < 100 nM |
| COc1cc(C#N)cc(-c2cc(C(=O)Nc3ccc(=O)[nH]n3)ncn2)c1 [Example 26] | < 100 nM |
| O=C(c1cc(-c2cccc(Cl)c2)ncn1)N1CCc2ccccc21 [Example 2] | < 100 nM |
| COc1cnc(NC(=O)c2cc(-c3cc(F)cc(Cl)c3)ncn2)cn1 [Example 25] | < 100 nM |
| O=C(Nc1ccccc1)c1cc(-c2cccc(Cl)c2)ncn1 [Example 1, 6-(3-Chlorophenyl)-N-phenylpyrimidine-4-carboxamide] | < 100 nM |
| Cn1nc(NC(=O)c2cc(-c3cc(F)cc(Cl)c3)ncn2)ccc1=O [Example 11] | < 100 nM |
| Cn1nc(NC(=O)c2cc(-c3cc(F)nc(Cl)c3)ncn2)ccc1=O [Example 23] | < 100 nM |
| COc1ncc(-c2cc(C(=O)Nc3ccc(=O)n(C)n3)ncn2)cc1Cl [Example 17] | < 100 nM |
| Cc1cc(Cl)cc(-c2cc(C(=O)Nc3ccc(=O)n(C)n3)ncn2)c1 [Example 22] | < 100 nM |
| Cn1ccnc(NC(=O)c2cc(-c3cc(F)cc(Cl)c3)ncn2)c1=O [Example 24] | < 100 nM |
| Cn1ncc(NC(=O)c2cc(-c3cc(F)cc(Cl)c3)ncn2)cc1=O [Example 39] | < 100 nM |
| COc1cc(-c2cc(C(=O)Nc3ccc(=O)n(C)n3)nc(-c3ccccc3)n2)ccn1 [Example 40, 6-(2-Methoxypyridin-4-yl)-N-(1-methyl-6-oxo-1,6-dihydropyridazin-3-yl)-2-phenylpyrimidine-4-carboxamide] | < 100 nM |

Continued, values first:

| IC50 | SMILES |
| --- | --- |
| < 100 nM | Cn1nc(NC(=O)c2cc(-c3ccc(F)c(Cl)c3)ncn2)ccc1=O [Example 12] |
| < 100 nM | COc1cncc(NC(=O)c2cc(-c3cccc(Cl)c3)ncn2)c1 [Example 3] |
| < 100 nM | COc1cc(-c2cc(C(=O)Nc3ccc(=O)n(C)n3)ncn2)ccc1Cl [Example 9] |
| < 100 nM | COc1ccc(-c2cc(C(=O)Nc3cnn(C)c(=O)c3)ncn2)cc1Cl [Example 36, 6-(3-Chloro-4-methoxyphenyl)-N-(1-methyl-6-oxo-1,6-dihydropyridazin-4-yl)pyrimidine-4-carboxamide] |
| < 100 nM | COc1ccc(-c2cc(C(=O)Nc3ccc(=O)n(C)n3)ncn2)cc1Cl [Example 8, 6-(3-Chloro-4-methoxyphenyl)-N-(1-methyl-6-oxo-1,6-dihydropyridazin-3-yl)pyrimidine-4-carboxamide] |
| < 100 nM | COc1ccnc(CNC(=O)c2cc(-c3ccc(F)c(OC)c3)ncn2)n1 [Example 16] |
| < 100 nM | COc1ccnc(CNC(=O)c2cc(-c3cnc(OC)c(Cl)c3)ncn2)n1 [Example 34, 6-(5-chloro-6-methoxypyridin-3-yl)-N-((4-methoxypyrimidin-2-yl)methyl)pyrimidine-4-carboxamide] |
| < 100 nM | COc1ccc(-c2cc(C(=O)NCc3nccc(=O)n3C)ncn2)cc1Cl [Example 30] |
| < 100 nM | COc1cc(-c2cc(C(=O)Nc3ccc(=O)n(C)n3)ncn2)ccc1F [Example 10] |
| < 100 nM | COc1cncc(NC(=O)c2cc(-c3ccnc(OC)c3)ncn2)c1 [Example 7] |
| < 100 nM | COc1cc(-c2cc(C(=O)NCc3ncccc3OC)ncn2)ccc1F [Example 15] |
| < 100 nM | COc1ccc(-c2cc(C(=O)Nc3cc(=O)n(C)cn3)ncn2)cc1Cl [Example 37] |
| < 100 nM | COc1ccc(CNC(=O)c2cc(-c3ccc(F)c(OC)c3)ncn2)nc1 [Example 13] |
| < 100 nM | COc1cc(-c2cc(C(=O)NCc3nccc(=O)n3C)ncn2)ccc1F [Example 29, 6-(4-Fluoro-3-methoxyphenyl)-N-((1-methyl-6-oxo-1,6-dihydropyrimidin-2-yl)methyl)pyrimidine-4-carboxamide] |
| < 100 nM | Cn1c(CNC(=O)c2cc(-c3cc(F)cc(Cl)c3)ncn2)nccc1=O [Example 31] |
| < 100 nM | Cn1c(CNC(=O)c2cc(-c3cc(F)cc(C#N)c3)ncn2)nccc1=O [Example 32] |
| < 100 nM | COc1cccc(-c2cc(C(=O)Nc3ccc(=O)n(C)n3)ncn2)c1 [Example 4, 6-(3-Methoxyphenyl)-N-(1-methyl-6-oxo-1,6-dihydropyridazin-3-yl)pyrimidine-4-carboxamide] |
| < 100 nM | COc1cc(-c2cc(C(=O)Nc3cncc(OC)c3C)ncn2)ccn1 [Example 5] |
| < 100 nM | COc1ccc(-c2cc(C(=O)Nc3nccn(C)c3=O)ncn2)cc1Cl [Example 18] |
| < 100 nM | COc1ncc(-c2cc(C(=O)NCc3nccc(=O)n3C)ncn2)cc1Cl [Example 33, 6-(5-Chloro-6-methoxypyridin-3-yl)-N-((1-methyl-6-oxo-1,6-dihydropyrimidin-2-yl)methyl)pyrimidine-4-carboxamide] |
| < 100 nM | COc1cc(-c2cc(C(=O)Nc3cncc(Cl)c3OC)ncn2)ccn1 [Example 6] |
